In patent EP4691468A1, “PHARMACEUTICAL COMPOSITION FOR TREATING INFLAMMATORY BOWEL DISEASE” (EA Pharma Co., Ltd., priority 2023, dated 2024):
“And” between values parts separate entries of the source, which are not always exact repeats. Equal entries are not always repeated. Where two headings read alike, the source gives them in different places.

Columns and labels:
[1] = PK Simulation Analysis 1 by superposition method (Phoenix WinNonlin NPS); parameters: species or system human
Excerpt: The plasma concentration profile of Compound (2) on day 10 of repeated administration was predicted using the superposition method implemented in the Nonparametric Superposition (NPS) tool of the analysis software Phoenix WinNonlin, applying the single-dose results (Certara L.P.) (Fig. 4). Table 5: Predicted Plasma Concentration (ng/mL) of Compound (2) on Day 10 of Repeated Administration

[2] = for 24-Hour Post-Dose Trough Values of Compound (2) after Repeated Administration / Average Plasma Concentrations of Compound (2) on Day 10 of Repeated Administration: Compound (1) 400 mg once daily L-SEDDS
Description: (§1) A phase 1 clinical trial was conducted to evaluate the safety, tolerability, and pharmacokinetics of Compound (1) when orally administered to healthy adult males.
(§2) This clinical trial was a single-center, randomized, double-blind, placebo-controlled, single and multiple ascending dose study with the primary objective of evaluating the safety and tolerability of Compound (1) when orally administered to healthy adult males.
(§3) The subjects in each cohort consisted of 8 people, of which 6 were assigned to Compound (1) and 2 were assigned to placebo, and they were administered the drug.
Day 8, when repeated administration was started, corresponds to administration day 1 (Day 1), and day 17 corresponds to administration day 10 (Day 10).
(§4) The plasma concentration of Compound (2) was measured using a validated measurement method. Specifically, plasma was separated from collected blood and processed, and then the plasma concentration was measured by an LC/MS/MS apparatus.
For twice-daily administration of C-SEDDS, blood was further collected at 13, 14, 14.5, and 16 hours later to quantify Compound (2).

[3] = PK Simulation Analysis 2 by superposition method (200 mg twice daily); parameters: species or system human; conditions: day 10 of repeated administration
Description: The plasma concentration of Compound (2) on day 10 of repeated administration at 200 mg twice daily (every 12 hours) was predicted using the superposition method implemented in the Nonparametric Superposition (NPS) tool of the analysis software Phoenix WinNonlin, applying the results of once-daily administration at 200 mg (Certara L.P.) (Fig. 6). Table 6: Predicted Plasma Concentration (ng/mL) of Compound (2) on Day 10 of Repeated Administration Twice Daily

[4] = Phase 1 single-dose administration study: plasma concentration of Compound (2) by LC/MS/MS; conditions: oral, single dose
Description: as §1, §2, §3, §4
Compound (1) was orally administered once to 6 healthy adult males per dose and dosage form at doses of 6, 20, 100, 200, and 400 mg in the form of hard capsules (CAP), liquid self-emulsifying drug delivery system (L-SEDDS), or soft capsule self-emulsifying drug delivery system (C-SEDDS).

[5] = Measured Value, Repeated, Once daily, 400/L-SEDDS, day 10

Cc1cc(=O)n(-c2ccc(C[C@H](NC(=O)c3cc(F)c(NS(=O)(=O)c4ccc(NC(=O)C(C)(C)C)cc4)cc3F)C(=O)O)cn2)c(=O)n1C [Compound (2)]
estimated trough value on the 10th day of repeated administration ([1]; 50 mg, 2.5 times the predicted 20 mg value): 2.03 ng/mL
Judgment Trough Value ([1]; estimated, repeated administration at 50 mg, 10th day): B (IC50 (1.9 ng/mL) or higher and less than IC90 (6.9 ng/mL))
24-Hour Post-Dose Trough Values of Compound (2) after Repeated Administration ([2]; Day 1): 5.092 ng/mL
24-Hour Post-Dose Trough Values of Compound (2) after Repeated Administration ([2]; Day 2): 10.90 ng/mL
24-Hour Post-Dose Trough Values of Compound (2) after Repeated Administration ([2]; Day 3): 10.60 ng/mL
24-Hour Post-Dose Trough Values of Compound (2) after Repeated Administration ([2]; Day 4): 14.21 ng/mL
24-Hour Post-Dose Trough Values of Compound (2) after Repeated Administration ([2]; Day 5): 19.56 ng/mL
24-Hour Post-Dose Trough Values of Compound (2) after Repeated Administration ([2]; Day 6): 17.27 ng/mL
24-Hour Post-Dose Trough Values of Compound (2) after Repeated Administration ([2]; Day 7): 19.85 ng/mL
24-Hour Post-Dose Trough Values of Compound (2) after Repeated Administration ([2]; Day 8): 22.03 ng/mL
24-Hour Post-Dose Trough Values of Compound (2) after Repeated Administration ([2]; Day 9): 22.80 ng/mL
24-Hour Post-Dose Trough Values of Compound (2) after Repeated Administration ([2]; Day 10): 13.04 ng/mL
Average Plasma Concentrations of Compound (2) on Day 10 of Repeated Administration ([2]; Day 10, Time 0.5 h): 23.82 ng/mL
Average Plasma Concentrations of Compound (2) on Day 10 of Repeated Administration ([2]; Day 10, Time 1 h): 43.52 ng/mL
Average Plasma Concentrations of Compound (2) on Day 10 of Repeated Administration ([2]; Day 10, Time 1.5 h): 44.71 ng/mL
Average Plasma Concentrations of Compound (2) on Day 10 of Repeated Administration ([2]; Day 10, Time 2 h): 40.35 ng/mL
Average Plasma Concentrations of Compound (2) on Day 10 of Repeated Administration ([2]; Day 10, Time 2.5 h): 34.19 ng/mL
Average Plasma Concentrations of Compound (2) on Day 10 of Repeated Administration ([2]; Day 10, Time 3 h): 32.09 ng/mL
Average Plasma Concentrations of Compound (2) on Day 10 of Repeated Administration ([2]; Day 10, Time 4 h): 28.31 ng/mL
Average Plasma Concentrations of Compound (2) on Day 10 of Repeated Administration ([2]; Day 10, Time 5 h): 25.14 ng/mL
Average Plasma Concentrations of Compound (2) on Day 10 of Repeated Administration ([2]; Day 10, Time 6 h): 17.77 ng/mL
Average Plasma Concentrations of Compound (2) on Day 10 of Repeated Administration ([2]; Day 10, Time 7 h): 14.77 ng/mL
Average Plasma Concentrations of Compound (2) on Day 10 of Repeated Administration ([2]; Day 10, Time 8 h): 13.57 ng/mL
Average Plasma Concentrations of Compound (2) on Day 10 of Repeated Administration ([2]; Day 10, Time 12 h): 16.86 ng/mL
Average Plasma Concentrations of Compound (2) on Day 10 of Repeated Administration ([2]; Day 10, Time 15 h): 11.33 ng/mL
Average Plasma Concentrations of Compound (2) on Day 10 of Repeated Administration ([2]; Day 10, Time 21 h): 15.69 ng/mL
Average Plasma Concentrations of Compound (2) on Day 10 of Repeated Administration ([2]; Day 10, Time 24 h): 13.04 ng/mL
24-Hour Post-Dose Trough Values of Compound (2) after Repeated Administration ([2]; Initial Value): 0.000 ng/mL
increase of plasma concentration (trough value) after 24 hours on the 10th day of repeated administration ([2]; L-SEDDS 400 mg once daily, versus single-dose administration): more than threefold
Judgment Trough Value [2, 5]: A (IC90 (6.9 ng/mL) or higher)
Plasma Concentration Trough Value [2, 5]: 13.04 ng/mL and 13.0 ng/mL
predicted trough value for 200 mg twice daily compared to measured trough value after 400 mg once daily [3]: about twice
Average Plasma Concentrations of Compound (2) after Single-Dose Administration ([4]; Compound (1) 6 mg CAP, Time 1 h): 0.121 ng/mL
Average Plasma Concentrations of Compound (2) after Single-Dose Administration ([4]; Compound (1) 6 mg CAP, Time 1.5 h): 0.350 ng/mL
Average Plasma Concentrations of Compound (2) after Single-Dose Administration ([4]; Compound (1) 6 mg CAP, Time 2 h): 0.448 ng/mL
Average Plasma Concentrations of Compound (2) after Single-Dose Administration ([4]; Compound (1) 6 mg CAP, Time 2.5 h): 0.536 ng/mL
Average Plasma Concentrations of Compound (2) after Single-Dose Administration ([4]; Compound (1) 6 mg CAP, Time 3 h): 0.554 ng/mL
Average Plasma Concentrations of Compound (2) after Single-Dose Administration ([4]; Compound (1) 6 mg CAP, Time 4 h): 0.590 ng/mL
Average Plasma Concentrations of Compound (2) after Single-Dose Administration ([4]; Compound (1) 6 mg CAP, Time 5 h): 0.424 ng/mL
Average Plasma Concentrations of Compound (2) after Single-Dose Administration ([4]; Compound (1) 6 mg CAP, Time 6 h): 0.313 ng/mL
Average Plasma Concentrations of Compound (2) after Single-Dose Administration ([4]; Compound (1) 6 mg CAP, Time 7 h): 0.209 ng/mL
Average Plasma Concentrations of Compound (2) after Single-Dose Administration ([4]; Compound (1) 6 mg CAP, Time 8 h): 0.127 ng/mL
Average Plasma Concentrations of Compound (2) after Single-Dose Administration ([4]; Compound (1) 6 mg CAP, Time 12 h): 0.075 ng/mL
Average Plasma Concentrations of Compound (2) after Single-Dose Administration ([4]; Compound (1) 20 mg CAP, Time 1 h): 0.211 ng/mL
Average Plasma Concentrations of Compound (2) after Single-Dose Administration ([4]; Compound (1) 20 mg CAP, Time 1.5 h): 0.585 ng/mL
Average Plasma Concentrations of Compound (2) after Single-Dose Administration ([4]; Compound (1) 20 mg CAP, Time 2 h): 0.768 ng/mL
Average Plasma Concentrations of Compound (2) after Single-Dose Administration ([4]; Compound (1) 20 mg CAP, Time 2.5 h): 1.023 ng/mL
Average Plasma Concentrations of Compound (2) after Single-Dose Administration ([4]; Compound (1) 20 mg CAP, Time 3 h): 0.926 ng/mL
Average Plasma Concentrations of Compound (2) after Single-Dose Administration ([4]; Compound (1) 20 mg CAP, Time 4 h): 0.817 ng/mL
Average Plasma Concentrations of Compound (2) after Single-Dose Administration ([4]; Compound (1) 20 mg CAP, Time 5 h): 0.702 ng/mL
Average Plasma Concentrations of Compound (2) after Single-Dose Administration ([4]; Compound (1) 20 mg CAP, Time 6 h): 0.567 ng/mL
Average Plasma Concentrations of Compound (2) after Single-Dose Administration ([4]; Compound (1) 20 mg CAP, Time 7 h): 0.533 ng/mL
Average Plasma Concentrations of Compound (2) after Single-Dose Administration ([4]; Compound (1) 20 mg CAP, Time 8 h): 0.507 ng/mL
Average Plasma Concentrations of Compound (2) after Single-Dose Administration ([4]; Compound (1) 20 mg CAP, Time 12 h): 0.351 ng/mL
Average Plasma Concentrations of Compound (2) after Single-Dose Administration ([4]; Compound (1) 20 mg CAP, Time 15 h): 0.338 ng/mL
Average Plasma Concentrations of Compound (2) after Single-Dose Administration ([4]; Compound (1) 20 mg CAP, Time 21 h): 0.339 ng/mL
Average Plasma Concentrations of Compound (2) after Single-Dose Administration ([4]; Compound (1) 20 mg CAP, Time 24 h): 0.245 ng/mL
Average Plasma Concentrations of Compound (2) after Single-Dose Administration ([4]; Compound (1) 100 mg CAP, Time 1 h): 0.556 ng/mL
Average Plasma Concentrations of Compound (2) after Single-Dose Administration ([4]; Compound (1) 100 mg CAP, Time 1.5 h): 1.274 ng/mL
Average Plasma Concentrations of Compound (2) after Single-Dose Administration ([4]; Compound (1) 100 mg CAP, Time 2 h): 1.864 ng/mL
Average Plasma Concentrations of Compound (2) after Single-Dose Administration ([4]; Compound (1) 100 mg CAP, Time 2.5 h): 2.343 ng/mL
Average Plasma Concentrations of Compound (2) after Single-Dose Administration ([4]; Compound (1) 100 mg CAP, Time 3 h): 2.246 ng/mL
Average Plasma Concentrations of Compound (2) after Single-Dose Administration ([4]; Compound (1) 100 mg CAP, Time 4 h): 2.465 ng/mL
Average Plasma Concentrations of Compound (2) after Single-Dose Administration ([4]; Compound (1) 100 mg CAP, Time 5 h): 2.331 ng/mL
